Reference: patent US6858428B2, “Human and animal cell culture medium containing antithrombin III for suppressing cell death” (Agency of Industrial Science and Technology, priority 1999, dated 2005)

System: hepatoma cell line HepG2
Assay: Survival of hepatoma cell line HepG2 in serum-free culture (viable cell count after 3 days)
Type: cell-based
Conditions: for Survival rate: HepG2, DMEM without fetal bovine serum; for Effect in controlling cell death (in words): HepG2, serum-free medium, concentration not given
Description: Two mL cell suspension of hepatoma cell line HepG2 dispersed in trypsin (5×10^5 cells) were inoculated on six multi-well plates and pre-culture by using Dulbecco's modified Eagle medium (DMEM) containing 5% fetal bovine serum, 1.6 g/L sodium hydrogencarbonate, 0.584 g/L L-glutamine, and 0.08 g/L kanamycin sulfate at 37° C. in a 5% CO2 gas phase. […] The viable cell count was assayed after 3 days of culture.
(§1) The hepatoma cell line HepG2 was pre-cultured in the same manner as in Example 1. After 1 day, the broth was recovered, the cell surfaces were washed with serum-free medium, and the culture was continued for another 3 days with the addition of medium containing 5%, 0% fetal bovine serum, or 2 mL of fresh medium comprising antithrombin III added in concentrations ranging from 1 to 25 μg/mL to media containing no fetal bovine serum (0%). The viable cell count was assayed after 3 days of culture.
as §1, with “III or any of-various synthetic protease inhibitors given in Table 4” for “III”, “added” for “added in concentrations ranging from 1 to 25 μg/mL”

Which Survival rate (additive 50 μg/ml) does the source give for `NCCc1ccc(S(=O)(=O)F)cc1` [AEBSF, reference compound] here?
The Survival rate was 92.2%.

What about the “Effect in controlling cell death (in words)” value (“Effect” for short) of the same compound?
The value was “effective in controlling cell death”.

With `N=C(N)c1ccc(CS(=O)(=O)F)cc1` [APMSF, reference compound] as the compound, how does the Survival rate (additive 40 μg/ml) read?
The Survival rate was 74.0%.

With `CC(=O)N[C@@H](CC(C)C)C(=O)N[C@@H](CC(C)C)C(=O)N[C@H](C=O)CCCNC(=N)N` [Leupeptin, reference compound] as the compound, how does the Survival rate (additive 0.5 μg/ml) read?
Its Survival rate is 65.5%.

How did the Survival rate (additive 50 μg/ml) turn out when `Cc1ccc(S(=O)(=O)N[C@@H](CCCCN)C(=O)CCl)cc1` [TLCK, reference compound] was run?
Its Survival rate is 89.3%.

What about the “Effect” value of the same compound?
Its value is “effective in controlling cell death”.

Which Survival rate (additive 50 ng/ml) does the source give for “IGF-1: growth factor reported as survival factor” here?
Its Survival rate is 45.3%.

Which Survival rate (additive 0.1 μM) does the source give for “Insulin: hormone reported as survival factor” here?
Its Survival rate is 53.0%.

Which results are given for “Orosomucoide: typical serum protein used for comparison”?
Survival rate (additive 48.8 μg/ml): 61.5%; Effect in controlling cell death (in words): virtually no effect in controlling cell death

“PDGF-AA: growth factor reported as survival factor” was tested. Which Survival rate (additive 50 ng/ml) did it give?
The Survival rate was 54.0%.

For “Transferrin: typical serum protein used for comparison”, which Survival rate (additive 150 μg/ml) is on record?
The Survival rate was 62.8%.

And the “Effect” value?
Its value is “virtually no effect in controlling cell death”.

How did the Survival rate (additive 10 ng/ml) turn out when “aFGF: growth factor reported as survival factor” was run?
The Survival rate was 59.6%.

Which Survival rate (additive 10 ng/ml) does the source give for “bFGF: growth factor reported as survival factor” here?
The Survival rate was 55.2%.

How did the Survival rate (additive 150 μg/ml) turn out when “α 1-antitrypsin: typical serum protein used for comparison” was run?
The Survival rate was 72.7%.

And the “Effect” value?
The value was “virtually no effect in controlling cell death”.
